pIC50: −log10 of the molar value.
Assays:
[1] = Protein binding in mice plasma using Rapid Equilibrium Dialysis; assay type: in vitro ADME, CD1 mice; conditions: 37° C.; for fraction unbound at 5 h, 1 µM: male, CD1, mouse, plasma, pH 7.4, CD1 mouse plasma
Protocol: Example B04: Protein binding in mice plasma using Rapid Equilibrium Dialysis
• CD1 Mice Plasma: pooled male, K2-EDTA ([…]2, Bioreclammation, USA • Phosphate Buffered Saline (1×PBS), pH 7.4, 100 mM (Sigma, Cat No. P4417) • RED inserts (Pierce, Cat No. 9006, 8 kDa MWCO) • Sample Analysis: LC-MS/MS Methods • Preparation of DMSO Stock Solution
From 20 mM DMSO stock solutions of reference and test compounds, 1 mM DMSO intermediate working solutions are prepared. From 1 mM intermediate working solutions, 100 μM DMSO working solutions are prepared. • Sample Preparation Procedure:
Selected plasma is brought from −20° C. to 37° C. using water bath before its use. Test solution is prepared by adding the DMSO working solution of the reference or test compound (2 μL; 100 μM) to the selected plasma (198 μL). Spiked plasma (200 μl) is transferred to sample compartment of RED insert placed in the teflon plate. 350 μl of 1×PBS is added in the buffer compartment of RED insert. The teflon plate is covered with sealing mat and agitated at 37° C. for 5 hours at 500 RPM in a Thermomixer. After incubation time, an aliquot of plasma (50 μl) from sample compartment is mixed with blank 1×PBS (50 μl). Similarly, an aliquot of buffer (50 μl) from buffer compartment is mixed with blank plasma (50 μl). Quenching solution (200 μL, acetonitrile containing internal standard tolbutamide (0.5 μg/mL)) is added and the resulting solutions are mixed using a vortex mixer and centrifuged (Eppendorf 5415, 13792 g). Supernatants are analyzed using a Mass Spectrometer. The sample (supernatant fraction, 5 μL) is injected into the LC-MS/MS instrument. • Chromatographic Conditions: LC-MS/MS: API 4000 LC-MS/MS Software: Analyst Version 1.6.1 Column Phenomenex Synergy 30*4.6*5μ Column Oven: 40° C. Mode: ESI Positive Injection volume: 5 μl Flow Rate: […] Buffer: 0.1% Formic acid in Water Method: Isocratic Method/Gradient Composition: A) 0.1% Formic acid in Water B) 0.1% Formic acid in Methanol
After the concentration of free drug and total drug has been determined by LCMS/MS, percent plasma protein binding can be calculated as follows:
[formula] Following this protocol, % fraction unbound in plasma from different species can be also measured.

[2] = biological target: Human O-GlcNAcase (His-Tagged hOGA) (Homo sapiens (Human), UniProt O60502); experiment: Human O-GlcNAcase enzyme inhibition assay; assay type: biochemical; conditions: His-Tagged hOGA 20 nM, FL-GlcNAc 10 μM, 60 min, room temperature, pH 6.5; read-out: Enzymatic OGA IC50
Protocol: Example B01: Human O-GlcNAcase enzyme inhibition assay
5 μl of the appropriate concentration of a solution of inhibitor in McIlvaine's Buffer (pH 6.5) in 2% DMSO (for a dose response curve calculation) is added into each well of a 384-well plate (Greiner, 781900). Then, 20 nM of His-Tagged hOGA and 10 μM of FL-GlcNAc (Fluorescein mono-beta-D-(2-deoxy-2-N-acetyl) glucopyranoside; Marker Gene Technologies Inc, M1485) were added to the 384-well plate for a final volume of 20 μl. After incubation for 60 min at room temperature, the reaction was terminated by the addition of 10 μL of stop buffer (200 mM glycine, pH 10.75).

Sequence of Human O-GlcNAcase (His-Tagged hOGA) (O60502 whole entry): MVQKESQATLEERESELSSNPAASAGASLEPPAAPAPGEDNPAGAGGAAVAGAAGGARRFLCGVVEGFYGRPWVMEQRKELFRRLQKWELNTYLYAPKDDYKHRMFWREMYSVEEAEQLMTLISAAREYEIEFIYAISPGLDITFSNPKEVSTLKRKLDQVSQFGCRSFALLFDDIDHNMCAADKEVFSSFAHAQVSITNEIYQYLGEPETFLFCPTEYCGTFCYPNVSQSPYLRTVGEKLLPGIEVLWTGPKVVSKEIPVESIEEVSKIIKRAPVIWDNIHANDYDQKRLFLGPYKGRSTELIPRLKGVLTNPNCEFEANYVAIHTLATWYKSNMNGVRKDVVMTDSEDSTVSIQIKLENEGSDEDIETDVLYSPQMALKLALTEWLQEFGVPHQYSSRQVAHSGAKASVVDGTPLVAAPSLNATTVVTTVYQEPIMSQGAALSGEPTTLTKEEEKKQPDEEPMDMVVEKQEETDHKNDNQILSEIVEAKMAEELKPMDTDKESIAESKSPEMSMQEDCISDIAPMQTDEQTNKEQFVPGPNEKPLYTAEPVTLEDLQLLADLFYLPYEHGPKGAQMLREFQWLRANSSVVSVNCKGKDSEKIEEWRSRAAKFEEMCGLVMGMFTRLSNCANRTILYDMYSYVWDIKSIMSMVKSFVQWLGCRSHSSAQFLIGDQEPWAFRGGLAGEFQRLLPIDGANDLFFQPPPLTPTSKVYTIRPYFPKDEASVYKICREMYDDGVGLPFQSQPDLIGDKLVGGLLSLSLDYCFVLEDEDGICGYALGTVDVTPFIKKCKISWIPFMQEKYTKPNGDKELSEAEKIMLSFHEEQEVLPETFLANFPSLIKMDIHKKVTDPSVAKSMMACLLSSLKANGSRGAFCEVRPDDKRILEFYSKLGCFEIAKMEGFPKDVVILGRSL

Row | SMILES | fraction unbound at 5 h, 1 µM [1] | pIC50 [2] | % fraction unbound in mouse plasma ([1]; CD1 mouse plasma, 5 hours) [%]
1 | Cc1nc2cc(C(C)N3CCN(c4ncc(S(C)(=N)=O)cn4)CC3)ccc2o1 (racemic) [Example 55, imino(methyl)(2-(4-(1-(2-methylbenzo[d]oxazol-5-yl)ethyl)piperazin-1-yl)pyrimidin-5-yl)-λ^6-sulfanone] | 0.39 | 6.70 to 7.30 | –
2 | CCCS(=N)(=O)c1cnc(N2CCN(C(C)c3ccc4scnc4c3)CC2)nc1 (racemic) [Example 24, (2-(4-(1-(benzo[d]thiazol-5-yl)ethyl)piperazin-1-yl)pyrimidin-5-yl)(imino)(propyl)-λ^6-sulfanone] | 0.134 | > 7.30 | –
3 | CN=S(C)(=O)c1cnc(N2CCN(C(C)c3ccc4scnc4c3)CC2)nc1 (single isomer, unassigned) [Example 37] | 0.278 | > 7.30 | –
4 | CC(c1ccc2scnc2c1)N1CCN(c2ncc(S(C)(=N)=O)cn2)CC1 (racemic) [Example 22, (2-(4-(1-(benzo[d]thiazol-5-yl)ethyl)piperazin-1-yl)pyrimidin-5-yl)(imino)(methyl)-λ^6-sulfanone] | 0.248 | > 7.30 | –
5 | CCS(=N)(=O)c1cnc(N2CCN(C(C)c3ccc4scnc4c3)CC2)nc1 (racemic) [Example 23, (2-(4-(1-(benzo[d]thiazol-5-yl)ethyl)piperazin-1-yl)pyrimidin-5-yl)(ethyl)(imino)-λ^6-sulfanone] | 0.215 | > 7.30 | –
6 | CC(c1ccc2scnc2c1)N1CCN(c2ncc(N=S(C)(C)=O)cn2)CC1 (racemic) [Example 31, ((2-(4-(1-(benzo[d]thiazol-5-yl)ethyl)piperazin-1-yl)pyrimidin-5-yl)imino)dimethyl-λ^6-sulfanone] | 0.229 | > 7.30 | –
7 | CN=S(C)(=O)c1ccc(N2CCN(C(C)c3ccc4sc(C)nc4c3)CC2)nc1 (racemic) [Example 47, methyl(6-(4-(1-(2-methylbenzo[d]thiazol-5-yl)ethyl)piperazin-1-yl)pyridin-3-yl)(methylimino)-λ^6-sulfanone] | 0.0959 | 6.70 to 7.30 | –
8 | CC(c1ccc2c(c1)OCC2)N1CCN(c2ncc(S(C)(=N)=O)cn2)CC1 (single isomer, unassigned) [Example 14] | – | > 7.30 | 35.63
9 | CCN=S(C)(=O)c1cnc(N2CCN(C(C)c3ccc4scnc4c3)CC2)nc1 (racemic) [Example 27] | 0.186 | > 7.30 | –
10 | CC(c1ccc2c(c1)OCCC2)N1CCN(c2ncc(S(C)(=N)=O)cn2)CC1 (racemic) [Example 21, (2-(4-(1-(chroman-7-yl)ethyl)piperazin-1-yl)pyrimidin-5-yl)(imino)(methyl)-λ^6-sulfanone] | 0.222 | 6.70 to 7.30 | –
11 | CC(c1ccc2c(c1)OCC2)N1CCN(c2ncc(S(C)(=N)=O)cn2)CC1 (single isomer, unassigned) [Example 12] | 0.424 | > 7.30 | –
12 | CN=S(C)(=O)c1cnc(N2CCN(C(C)c3ccc4c(c3)OCC4)CC2)nc1 (racemic) [Example 8, (2-(4-(1-(2,3-dihydrobenzofuran-6-yl)ethyl)piperazin-1-yl)pyrimidin-5-yl)(methyl)(methylimino)-λ^6-sulfanone] | 0.234 | > 7.30 | –
13 | CC(c1ccc2c(c1)OCC2)N1CCN(c2ncc(N=S(C)(C)=O)cn2)CC1 (racemic) [Example 9] | 0.376 | > 7.30 | –
14 | COCCN=S(C)(=O)c1cnc(N2CCN(C(C)c3ccc4scnc4c3)CC2)nc1 (racemic) [Example 29, (2-(4-(1-(benzo[d]thiazol-5-yl)ethyl)piperazin-1-yl)pyrimidin-5-yl)((2-methoxyethyl)imino)(methyl)-λ^6-sulfanone] | 0.286 | > 7.30 | –
